# How the values were obtained:
# Melanocortin receptor 4 = Melanocortin receptor 4 (Homo sapiens, UniProt P32245); format: cell membranes, Membrane; conditions: hek293; further: in other assays of this panel Not Active means under 50% inhibition at 10 µM
# [1] = target: T1, Nitric oxide synthase, inducible (Mus musculus, UniProt P29477); set-up: species or system Escherichia coli;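 further: inhibition of iNOS enzyme activity measured with L-arginine as substrate; in other assays of this panel Not Active means under 50% inhibition at 10 µM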
# T1 sequence (P29477 whole entry): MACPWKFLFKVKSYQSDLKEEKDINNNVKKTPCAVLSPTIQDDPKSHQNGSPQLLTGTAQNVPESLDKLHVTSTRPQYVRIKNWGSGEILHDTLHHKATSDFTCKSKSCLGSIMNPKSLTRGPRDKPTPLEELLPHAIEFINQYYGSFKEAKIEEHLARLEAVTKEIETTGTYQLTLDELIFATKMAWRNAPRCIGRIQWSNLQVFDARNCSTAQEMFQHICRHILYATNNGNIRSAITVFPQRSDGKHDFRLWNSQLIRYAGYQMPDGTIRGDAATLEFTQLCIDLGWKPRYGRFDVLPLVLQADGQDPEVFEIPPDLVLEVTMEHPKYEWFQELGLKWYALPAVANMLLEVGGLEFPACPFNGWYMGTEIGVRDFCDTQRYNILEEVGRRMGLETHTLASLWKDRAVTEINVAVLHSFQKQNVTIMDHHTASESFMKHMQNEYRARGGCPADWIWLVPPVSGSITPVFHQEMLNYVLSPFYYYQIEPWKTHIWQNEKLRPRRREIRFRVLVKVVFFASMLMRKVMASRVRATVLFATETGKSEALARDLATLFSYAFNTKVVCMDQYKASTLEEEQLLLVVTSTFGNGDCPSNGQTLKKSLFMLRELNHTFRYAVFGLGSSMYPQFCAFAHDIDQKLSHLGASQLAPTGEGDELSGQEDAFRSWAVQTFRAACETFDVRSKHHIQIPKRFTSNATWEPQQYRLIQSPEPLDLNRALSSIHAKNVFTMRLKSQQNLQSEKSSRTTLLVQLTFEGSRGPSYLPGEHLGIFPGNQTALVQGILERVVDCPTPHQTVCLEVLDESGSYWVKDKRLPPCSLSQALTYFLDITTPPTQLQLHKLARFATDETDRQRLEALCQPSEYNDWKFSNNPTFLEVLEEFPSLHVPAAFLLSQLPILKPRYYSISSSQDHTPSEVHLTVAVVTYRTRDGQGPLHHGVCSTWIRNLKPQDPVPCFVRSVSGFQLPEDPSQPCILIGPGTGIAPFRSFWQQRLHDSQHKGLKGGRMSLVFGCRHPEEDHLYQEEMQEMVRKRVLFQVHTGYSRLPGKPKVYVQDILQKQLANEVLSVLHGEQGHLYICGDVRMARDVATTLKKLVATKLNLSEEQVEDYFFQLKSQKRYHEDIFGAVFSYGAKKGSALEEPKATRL
# [2] = target: Tyrosine-protein kinase Lck (Homo sapiens, UniProt P06239); test: DRUGMATRIX: Protein Tyrosine Kinase, LCK enzyme inhibition (substrate: Poly(Glu:Tyr)); format: cell-based, Insect cells; conditions: insect cells; Not Active = under 50% inhibition at 10 µM
# Tyrosine-protein kinase Lck, sequence (P06239 whole entry): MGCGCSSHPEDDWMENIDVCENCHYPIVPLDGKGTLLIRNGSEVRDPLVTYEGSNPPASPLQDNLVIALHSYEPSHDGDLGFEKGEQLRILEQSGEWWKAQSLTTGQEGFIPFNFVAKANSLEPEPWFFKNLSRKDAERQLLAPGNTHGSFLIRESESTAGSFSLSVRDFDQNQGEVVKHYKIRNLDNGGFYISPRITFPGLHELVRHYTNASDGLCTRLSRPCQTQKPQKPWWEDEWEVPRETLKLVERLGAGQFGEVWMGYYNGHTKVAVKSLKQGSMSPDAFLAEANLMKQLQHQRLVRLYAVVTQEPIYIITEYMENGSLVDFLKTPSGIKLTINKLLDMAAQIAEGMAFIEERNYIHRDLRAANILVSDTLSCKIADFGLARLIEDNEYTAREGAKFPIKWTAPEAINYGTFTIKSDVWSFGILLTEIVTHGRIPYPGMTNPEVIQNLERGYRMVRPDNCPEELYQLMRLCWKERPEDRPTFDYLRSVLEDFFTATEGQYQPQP
# [3] = DRUGMATRIX: Leukotriene, BLT (LTB4) radioligand binding (ligand: [3H]LTB4); format: cell membranes, Membrane; conditions: u-937; Not Active = under 50% inhibition at 10 µM
# Cytochrome P450 2E1 = Cytochrome P450 2E1 (Homo sapiens, UniProt P05181); conditions: bti-tn-5b1-4; further: in other assays of this panel Not Active means under 50% inhibition at 10 µM
# Cytochrome P450 2E1, sequence (P05181 whole entry): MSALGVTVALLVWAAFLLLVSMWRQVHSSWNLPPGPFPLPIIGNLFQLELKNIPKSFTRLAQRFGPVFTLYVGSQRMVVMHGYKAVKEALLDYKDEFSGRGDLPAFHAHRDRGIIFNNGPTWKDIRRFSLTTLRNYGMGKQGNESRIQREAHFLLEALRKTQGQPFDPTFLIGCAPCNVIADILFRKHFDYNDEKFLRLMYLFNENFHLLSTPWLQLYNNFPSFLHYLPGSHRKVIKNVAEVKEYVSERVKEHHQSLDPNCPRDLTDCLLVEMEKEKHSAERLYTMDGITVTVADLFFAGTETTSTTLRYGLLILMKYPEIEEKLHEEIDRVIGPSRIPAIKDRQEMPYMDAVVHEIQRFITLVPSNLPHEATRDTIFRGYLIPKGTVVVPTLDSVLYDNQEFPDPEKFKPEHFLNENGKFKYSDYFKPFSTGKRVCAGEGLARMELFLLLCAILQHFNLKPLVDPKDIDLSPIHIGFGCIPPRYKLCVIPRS
# [4] = target: T2, Type-2 angiotensin II receptor (Homo sapiens, UniProt P50052); format: cell-based; conditions: cho-k1; further: in other assays of this panel Not Active means under 50% inhibition at 10 µM
# T2 sequence (P50052 whole entry): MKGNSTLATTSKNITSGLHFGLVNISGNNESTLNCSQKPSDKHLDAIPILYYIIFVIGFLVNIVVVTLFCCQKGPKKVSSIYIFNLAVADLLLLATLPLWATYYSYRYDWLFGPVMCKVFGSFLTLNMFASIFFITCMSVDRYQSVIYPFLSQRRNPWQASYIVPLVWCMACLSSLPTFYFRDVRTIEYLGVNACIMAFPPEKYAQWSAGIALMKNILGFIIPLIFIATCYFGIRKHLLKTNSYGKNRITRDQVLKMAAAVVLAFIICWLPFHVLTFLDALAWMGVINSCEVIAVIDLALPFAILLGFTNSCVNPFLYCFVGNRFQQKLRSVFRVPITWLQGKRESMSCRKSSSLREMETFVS
# [5] = target: Mitogen-activated protein kinase 14 (Homo sapiens, UniProt Q16539); set-up: species or system Escherichia coli
# Mitogen-activated protein kinase 14, sequence (Q16539 whole entry): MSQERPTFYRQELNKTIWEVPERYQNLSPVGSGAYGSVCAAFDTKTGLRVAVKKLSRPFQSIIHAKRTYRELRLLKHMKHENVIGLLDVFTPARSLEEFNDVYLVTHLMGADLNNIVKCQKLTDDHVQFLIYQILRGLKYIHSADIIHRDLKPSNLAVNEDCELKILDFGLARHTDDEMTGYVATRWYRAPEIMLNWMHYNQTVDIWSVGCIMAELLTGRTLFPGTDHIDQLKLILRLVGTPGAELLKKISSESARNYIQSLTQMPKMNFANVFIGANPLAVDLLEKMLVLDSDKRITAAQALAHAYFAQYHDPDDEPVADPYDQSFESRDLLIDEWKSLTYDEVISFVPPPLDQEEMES
# [6] = target: T3, Polyunsaturated fatty acid lipoxygenase ALOX15 (Oryctolagus cuniculus, UniProt P12530); test: biochemical; format: tissue-based, Reticulocytes; conditions: reticulocytes
# T3 sequence (P12530 whole entry): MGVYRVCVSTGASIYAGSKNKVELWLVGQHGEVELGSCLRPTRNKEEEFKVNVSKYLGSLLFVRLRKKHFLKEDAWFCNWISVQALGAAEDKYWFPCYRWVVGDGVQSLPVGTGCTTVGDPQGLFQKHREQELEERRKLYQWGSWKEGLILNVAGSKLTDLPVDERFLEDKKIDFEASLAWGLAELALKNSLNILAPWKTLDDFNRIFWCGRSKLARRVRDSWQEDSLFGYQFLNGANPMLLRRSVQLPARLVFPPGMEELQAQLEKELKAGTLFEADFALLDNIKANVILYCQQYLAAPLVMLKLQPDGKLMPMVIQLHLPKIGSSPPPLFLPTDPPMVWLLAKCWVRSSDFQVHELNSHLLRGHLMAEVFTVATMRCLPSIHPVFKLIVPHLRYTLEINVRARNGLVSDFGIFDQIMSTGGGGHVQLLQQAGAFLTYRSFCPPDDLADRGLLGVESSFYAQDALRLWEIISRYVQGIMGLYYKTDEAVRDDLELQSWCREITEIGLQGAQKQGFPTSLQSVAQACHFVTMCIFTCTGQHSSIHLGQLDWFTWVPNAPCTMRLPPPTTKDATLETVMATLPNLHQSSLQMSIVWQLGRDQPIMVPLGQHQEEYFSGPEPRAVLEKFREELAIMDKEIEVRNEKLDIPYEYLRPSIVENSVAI
# Cannabinoid receptor 1 = Cannabinoid receptor 1 (Homo sapiens, UniProt P21554); format: cell membranes, Membrane; conditions: chem-1; further: in other assays of this panel Not Active means under 50% inhibition at 10 µM
# Cannabinoid receptor 1, sequence (P21554 whole entry): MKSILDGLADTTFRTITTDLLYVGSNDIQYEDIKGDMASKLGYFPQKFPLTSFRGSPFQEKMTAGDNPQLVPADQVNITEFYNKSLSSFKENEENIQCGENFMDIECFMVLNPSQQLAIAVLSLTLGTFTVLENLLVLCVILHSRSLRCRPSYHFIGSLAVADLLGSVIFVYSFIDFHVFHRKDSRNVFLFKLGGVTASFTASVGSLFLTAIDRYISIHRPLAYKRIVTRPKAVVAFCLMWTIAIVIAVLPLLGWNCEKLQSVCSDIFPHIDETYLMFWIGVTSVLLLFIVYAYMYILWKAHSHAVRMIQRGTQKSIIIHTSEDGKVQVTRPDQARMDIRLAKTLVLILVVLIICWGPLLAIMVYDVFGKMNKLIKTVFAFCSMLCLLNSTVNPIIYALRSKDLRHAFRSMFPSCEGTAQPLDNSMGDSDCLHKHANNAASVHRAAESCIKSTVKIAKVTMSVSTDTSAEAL
# [7] = DRUGMATRIX: Calcium Channel Type L, Dihydropyridine radioligand binding (ligand: [3H] Nitrendipine); format: cell membranes, Rattus norvegicus, Wistar, Cerebral cortex, Membrane; conditions: Not Active = under 50% inhibition at 10 µM
# D(3) dopamine receptor = D(3) dopamine receptor (Homo sapiens, UniProt P35462); test: DRUGMATRIX: Dopamine D3 radioligand binding (ligand: [3H] Spiperone); format: cell membranes, CHO, Membrane
# D(3) dopamine receptor, sequence (P35462 whole entry): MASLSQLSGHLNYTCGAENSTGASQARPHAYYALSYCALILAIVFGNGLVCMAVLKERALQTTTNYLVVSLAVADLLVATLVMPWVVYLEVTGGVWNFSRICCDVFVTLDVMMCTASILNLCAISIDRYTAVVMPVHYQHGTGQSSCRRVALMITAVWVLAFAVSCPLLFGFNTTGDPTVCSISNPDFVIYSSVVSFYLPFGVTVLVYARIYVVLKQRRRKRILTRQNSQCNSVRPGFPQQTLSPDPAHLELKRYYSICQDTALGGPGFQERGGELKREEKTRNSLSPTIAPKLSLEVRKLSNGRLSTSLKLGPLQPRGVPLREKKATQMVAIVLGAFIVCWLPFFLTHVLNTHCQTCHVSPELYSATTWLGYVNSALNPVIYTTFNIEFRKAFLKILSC
# Glycine receptor = Glycine receptor (Rattus norvegicus, UniProt P22771+P24524+P07727+P20781); format: cell membranes, Wistar, Spinal cord, Membrane; further: in other assays of this panel Not Active means under 50% inhibition at 10 µM
# Melanocortin receptor 4, sequence (P32245 whole entry): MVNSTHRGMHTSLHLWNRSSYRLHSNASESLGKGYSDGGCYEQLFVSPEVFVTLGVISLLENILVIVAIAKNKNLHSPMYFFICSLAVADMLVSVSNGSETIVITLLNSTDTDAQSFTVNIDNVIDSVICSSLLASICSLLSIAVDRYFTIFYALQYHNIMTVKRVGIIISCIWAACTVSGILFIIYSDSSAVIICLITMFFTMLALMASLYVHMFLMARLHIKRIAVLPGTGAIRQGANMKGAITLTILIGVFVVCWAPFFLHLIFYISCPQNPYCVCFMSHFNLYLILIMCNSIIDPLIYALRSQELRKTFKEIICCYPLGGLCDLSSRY
compound,measurement,setting,value
Nc1nc2c(ncn2COC(CO)CO)c(=O)[nH]1 [GANCICLOVIR],IC50,Melanocortin receptor 4,Not Active
same,IC50,[1],Not Active
same,IC50,[2],Not Active
same,IC50,[3],Not Active
same,Ki,[3],Not Active
same,IC50,Cytochrome P450 2E1,Not Active
same,Ki,Cytochrome P450 2E1,Not Active
same,IC50,[4],Not Active
same,IC50,[5],Not Active
same,IC50,[6],Not Active
same,IC50,Cannabinoid receptor 1,Not Active
same,IC50,[7],Not Active
same,Ki,[7],Not Active
same,IC50,D(3) dopamine receptor; cho,Not Active
same,IC50,Glycine receptor,Not Active
COc1c(N2CCNC(C)C2)c(F)cc2c(=O)c(C(=O)O)cn(C3CC3)c12 (stereo unspecified) [GATIFLOXACIN],IC50,Melanocortin receptor 4,Not Active
same,IC50,[1],Not Active
same,IC50,[2],Not Active
same,IC50,[3],Not Active
same,Ki,[3],Not Active
same,IC50,Cytochrome P450 2E1,Not Active
same,Ki,Cytochrome P450 2E1,Not Active
same,IC50,[4],Not Active
same,IC50,[5],Not Active
same,IC50,[6],Not Active
same,IC50,Cannabinoid receptor 1,Not Active
same,IC50,[7],Not Active
same,Ki,[7],Not Active
same,IC50,D(3) dopamine receptor; cho,Not Active
same,IC50,Glycine receptor,Not Active
CC1(C)[C@@H](O[C@H]2O[C@H](C(=O)O)[C@@H](O)[C@H](O)[C@H]2O[C@@H]2O[C@H](C(=O)O)[C@@H](O)[C@H](O)[C@H]2O)CC[C@]2(C)[C@H]3C(=O)C=C4[C@@H]5C[C@@](C)(C(=O)O)CC[C@]5(C)CC[C@@]4(C)[C@]3(C)CC[C@@H]12 [GLYCYRRHIZIN],IC50,Melanocortin receptor 4,Not Active
same,IC50,[1],Not Active
same,IC50,[2],Not Active
same,IC50,[3],Not Active
same,Ki,[3],Not Active
same,IC50,Cytochrome P450 2E1,Not Active
same,Ki,Cytochrome P450 2E1,Not Active
same,IC50,[4],Not Active
same,IC50,[5],Not Active
same,IC50,[6],Not Active
same,IC50,Cannabinoid receptor 1,Not Active
same,IC50,[7],Not Active
same,Ki,[7],Not Active
same,IC50,D(3) dopamine receptor; cho,Not Active
same,IC50,Glycine receptor,Not Active
COC1=CC(=O)C[C@@H](C)[C@]12Oc1c(Cl)c(OC)cc(OC)c1C2=O [GRISEOFULVIN],IC50,Melanocortin receptor 4,Not Active
same,IC50,[1],Not Active
same,IC50,[2],Not Active
same,IC50,[3],Not Active
same,Ki,[3],Not Active
same,IC50,Cytochrome P450 2E1,Not Active
same,Ki,Cytochrome P450 2E1,Not Active
same,IC50,[4],Not Active
same,IC50,[5],Not Active
same,IC50,[6],Not Active
same,IC50,Cannabinoid receptor 1,Not Active
same,IC50,[7],Not Active
same,Ki,[7],Not Active
same,IC50,D(3) dopamine receptor; cho,Not Active
same,IC50,Glycine receptor,Not Active
C/C=C1\[C@H]2C=C(C)C[C@]1(N)c1ccc(=O)[nH]c1C2 [HUPERZINE A],IC50,Melanocortin receptor 4,Not Active
same,IC50,[1],Not Active
same,IC50,[2],Not Active
same,IC50,[3],Not Active
same,Ki,[3],Not Active
same,IC50,Cytochrome P450 2E1,Not Active
same,Ki,Cytochrome P450 2E1,Not Active
same,IC50,[4],Not Active
same,IC50,[5],Not Active
same,IC50,[6],Not Active
same,IC50,Cannabinoid receptor 1,Not Active
same,IC50,[7],Not Active
same,Ki,[7],Not Active
same,IC50,D(3) dopamine receptor; cho,Not Active
same,IC50,Glycine receptor,Not Active
NS(=O)(=O)c1cc2c(cc1Cl)NCNS2(=O)=O [HYDROCHLOROTHIAZIDE],IC50,Melanocortin receptor 4,Not Active
same,IC50,[1],Not Active
same,IC50,[2],Not Active
same,IC50,[3],Not Active
same,Ki,[3],Not Active
same,IC50,Cytochrome P450 2E1,Not Active
same,Ki,Cytochrome P450 2E1,Not Active
same,IC50,[4],Not Active
same,IC50,[5],Not Active
same,IC50,[6],Not Active
same,IC50,Cannabinoid receptor 1,Not Active
same,IC50,[7],Not Active
same,Ki,[7],Not Active
same,IC50,D(3) dopamine receptor; cho,Not Active
same,IC50,Glycine receptor,Not Active
CN1CCC[C@H]1c1cccnc1 [NICOTINE],IC50,Melanocortin receptor 4,Not Active
same,IC50,[1],Not Active
same,IC50,[2],Not Active
same,IC50,[3],Not Active
same,Ki,[3],Not Active
same,IC50,Cytochrome P450 2E1,Not Active
same,Ki,Cytochrome P450 2E1,Not Active
same,IC50,[4],Not Active
same,IC50,[5],Not Active
same,IC50,[6],Not Active
same,IC50,Cannabinoid receptor 1,Not Active
same,IC50,[7],Not Active
same,Ki,[7],Not Active
same,IC50,D(3) dopamine receptor; cho,Not Active
same,IC50,Glycine receptor,Not Active
O=C1CN=C(c2ccccc2)c2cc([N+](=O)[O-])ccc2N1 [NITRAZEPAM],IC50,Melanocortin receptor 4,Not Active
same,IC50,[1],Not Active
same,IC50,[2],Not Active
same,IC50,[3],Not Active
same,Ki,[3],Not Active
same,IC50,Cytochrome P450 2E1,Not Active
same,Ki,Cytochrome P450 2E1,Not Active
same,IC50,[4],Not Active
same,IC50,[5],Not Active
same,IC50,[6],Not Active
same,IC50,Cannabinoid receptor 1,Not Active
same,IC50,[7],Not Active
same,Ki,[7],Not Active
same,IC50,D(3) dopamine receptor; cho,Not Active
same,IC50,Glycine receptor,Not Active
CNCCC=C1c2ccccc2CCc2ccccc21 [NORTRIPTYLINE],IC50,Melanocortin receptor 4,Not Active
same,IC50,[1],Not Active
same,IC50,[2],Not Active
same,IC50,[3],Not Active
same,Ki,[3],Not Active
same,IC50,Cytochrome P450 2E1,Not Active
same,Ki,Cytochrome P450 2E1,Not Active
same,IC50,[4],Not Active
same,IC50,[5],Not Active
same,IC50,[6],Not Active
same,IC50,Cannabinoid receptor 1,Not Active
same,IC50,[7],Not Active
same,Ki,[7],Not Active
same,IC50,D(3) dopamine receptor; read-out: IC50,179 nM
same,Ki,D(3) dopamine receptor; read-out: Ki,61 nM
same,IC50,Glycine receptor,Not Active
